The record followed here is ChEMBL document CHEMBL6078622, “Enhancing outer membrane permeability of tetracycline antibiotics in P. aeruginosa using TOB-CIP conjugates” (RSC Med Chem, 2024).

Holding throughout (type): functional
The subject of assay [1] is Pseudomonas aeruginosa. The experiment in a line: Antibacterial activity against Pseudomonas aeruginosa PA200 assessed as minocycline MIC by CLSI based broth-microdilution method. (In broth dilution the organism is exposed to a series of concentrations in liquid medium.)
Assay [2] has as its system Pseudomonas aeruginosa. The experiment in a line: Synergistic antibacterial activity against Pseudomonas aeruginosa PA101243 assessed as fractional inhibitory concentration index in presence of doxycycline by checkerboard assay.
The subject of assay [3] is Pseudomonas aeruginosa. The experiment in a line: Antibacterial activity against Pseudomonas aeruginosa PAO1 assessed as inhibition of visible bacterial growth by CLSI based broth-microdilution method.
The test system of assay [4] is Pseudomonas aeruginosa. Put plainly: Antibacterial activity against Pseudomonas aeruginosa PA101243 assessed as tigecycline MIC by CLSI based broth-microdilution method.
The subject of assay [5] is Pseudomonas aeruginosa. Put plainly: Synergistic antibacterial activity against Pseudomonas aeruginosa PA264 assessed as fold change in doxycycline MIC by CLSI based broth-microdilution method relative to doxycycline alone.
Assay [6] has as its system Pseudomonas aeruginosa. Put plainly: Synergistic antibacterial activity against Pseudomonas aeruginosa PA200 assessed as fractional inhibitory concentration index in presence of doxycycline by checkerboard assay.
Assay [7] has as its system Pseudomonas aeruginosa. Put plainly: Antibacterial activity against Pseudomonas aeruginosa PA114228 assessed as eravacycline MIC by CLSI based broth-microdilution method.
The subject of assay [8] is Pseudomonas aeruginosa. The experiment in a line: Synergistic antibacterial activity against Pseudomonas aeruginosa PA264 in presence of tigecycline by checkerboard assay.
Assay [9] deals with Pseudomonas aeruginosa. The experiment in a line: Synergistic antibacterial activity against Pseudomonas aeruginosa PA200 assessed as fold change in minocycline MIC by CLSI based broth-microdilution method relative to minocycline alone.
Assay [10] relates to Pseudomonas aeruginosa. The experiment in a line: Antibacterial activity against Pseudomonas aeruginosa PA264 assessed as tigecycline MIC by CLSI based broth-microdilution method.
The test system of assay [11] is Pseudomonas aeruginosa. Put plainly: Antibacterial activity against Pseudomonas aeruginosa PA100036 assessed as eravacycline MIC by CLSI based broth-microdilution method.
In assay [12] the test system is Pseudomonas aeruginosa. The experiment in a line: Antibacterial activity against Pseudomonas aeruginosa PA100036 assessed as doxycycline MIC by CLSI based broth-microdilution method.
Assay [13] deals with Pseudomonas aeruginosa. Put plainly: Synergistic antibacterial activity against Pseudomonas aeruginosa PA114228 in presence of eravacycline by checkerboard assay.
The subject of assay [14] is Pseudomonas aeruginosa. The experiment in a line: Synergistic antibacterial activity against Pseudomonas aeruginosa PA200 assessed as fold change in eravacycline MIC by CLSI based broth-microdilution method relative to eravacycline alone.
The subject of assay [15] is Pseudomonas aeruginosa. Put plainly: Synergistic antibacterial activity against Pseudomonas aeruginosa PA101243 in presence of eravacycline by checkerboard assay.
The test system of assay [16] is Pseudomonas aeruginosa. The experiment in a line: Synergistic antibacterial activity against Pseudomonas aeruginosa PA100036 assessed as fractional inhibitory concentration index in presence of tigecycline by checkerboard assay.
The test system of assay [17] is Pseudomonas aeruginosa. The experiment in a line: Synergistic antibacterial activity against Pseudomonas aeruginosa PA101243 assessed as fold change in minocycline MIC by CLSI based broth-microdilution method relative to minocycline alone.

A word on the MIC: it is the lowest concentration found to suppress growth. Turning to `Cl.Cl.Cl.Cl.Cl.Cl.NC[C@H]1O[C@H](O[C@H]2[C@H](OCCCCCCCCCCCCNC(=O)c3cn(C4CC4)c4cc(N5CCNCC5)c(F)cc4c3=O)[C@@H](O[C@H]3O[C@H](CO)[C@@H](O)[C@H](N)[C@H]3O)[C@H](N)C[C@@H]2N)[C@H](N)C[C@@H]1O`, the minimum inhibitory concentration (MIC) in the assay on Pseudomonas aeruginosa [1] was 1 µg/mL; with Pseudomonas aeruginosa [3], greater than 128 µg/mL; with Pseudomonas aeruginosa [4], 4 µg/mL; in the assay on Pseudomonas aeruginosa [7] it was 4 µg/mL; in the assay with Pseudomonas aeruginosa [8], 8 µg/mL; with Pseudomonas aeruginosa [10], 0.5 µg/mL. In addition, the MIC with Pseudomonas aeruginosa [11] was 0.125 µg/mL; in the assay on Pseudomonas aeruginosa [12] it was 1 µg/mL; with Pseudomonas aeruginosa [13] it was 8 µg/mL; with Pseudomonas aeruginosa [15] it was 8 µg/mL. Further, the “fractional inhibitory concentration index (FICI)” value in the assay on Pseudomonas aeruginosa [2] came out at 0.25; in the assay on Pseudomonas aeruginosa [6], 0.257; in the assay on Pseudomonas aeruginosa [16] it was 0.002. Further, the “fold change (FC)” value in the assay on Pseudomonas aeruginosa [5] was determined as 16; in the assay on Pseudomonas aeruginosa [9], 64; with Pseudomonas aeruginosa [14], 128; with Pseudomonas aeruginosa [17], 4.
